Measured values published in patent EP0808325B1, “[…] […] SERIES FOR […] GABA RECEPTOR” (priority 1994, dated 1996).

Legend:
[1] = tested on: mice; test: loss-of-righting reflex (anesthetic activity); format: in vivo; parameters: unit not given here; details: iv
Method: The compounds of and used in the invention can also be used for anesthetic indications at high doses. However, the preferred route of administration to induce anesthesia is intravenous (i.v.) administration. In animals, a drug's anesthetic properties is measured by the drug's ability to produce a loss-of-righting reflex. The loss-of-righting reflex is defined as the inability of an animal to right itself within 30 seconds when placed on its back. Mice were administered drug i.v. in the lateral tail vein. Following administration, mice were placed on their backs and observed for loss-of-righting reflex.

[2] = tested on: mice; test: elevated plus-maze; format: in vivo, N.I.H. Swiss-Webster mice; details: IP
From the text: The theoretical basis for the elevated plus-maze test is similar to that of the light/dark transition test. As described by Pellow et al., J. Neurosci. Meth 14:149-167 (1985), the elevated plus-maze apparatus is designed to utilize the mice's natural aversion to open spaces. The apparatus consists of two open-arms and two enclosed-arms. The elevated plus-maze test allows for two measures of anxiety, the number of entries into the open-arms and the time spent on the open-arms, both expressed as a percentage of the total number of entries and time spent in/on both the open-arms and enclosed-arms.
Male N.I.H. Swiss-Webster mice (Harlan, Indianapolis, IN) weighing 15-20 g were housed four per cage in polyethylene cages with sawdust bedding. The colony room was environmentally controlled (22°C) with a 12 hr light/dark cycle (0600-1800 hr). Food and water were available ad libitum, except during testing. The experiments were run from 0700-1500 hr and groups were counterbalanced for time of day effects. Mice were only administered drug or vehicle once.
The method used was previously described (Lister, Psychopharmacol. 92:180-185 (1987)). The apparatus included two open arms perpendicular to two enclosed arms elevated 50 cm from the floor. Each arm was 50 cm long and the walls of the enclosed arms were 40 cm tall. The maze was made completely of black plexiglass. Incandescent 200 W light bulbs were above each of the open arms to produce a strong contrast between the open arms and the enclosed arms.
Ten minutes after an injection, the N.I.H. Swiss-Webster mice were placed in the center of the plus-maze facing an open arm. During the 5 min test period, the number of entries onto the open arms and the enclosed arms, and the time spent in the open arms and enclosed arms were measured. All four paws had to be within an arm for the dependent variable to be measured. Therefore, the time spent in the center of the maze is not counted, so the total time spent in the open arms and the enclosed arms may not equal 5 min. […]

[3] = tested on: metrazol induced convulsions; test: animal or person; format: in vivo, mice; details: IP, 10 mg/kg
[4] = biological target: GR complex; test: modulation of [35S]TBPS binding in rat cerebral cortex P2 homogenate; parameters: species or system Sprague-Dawley rats; IMAX: unit not given here; details: for IC50: concentration of compounds to inhibit 50% of control [35S]TBPS binding, 2 nM [35S]TBPS, 25°C, 90 minutes; for IMAX: maximum inhibition of [35S]TBPS binding, I* = Inactive
Outline: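 Rat (male Sprague-Dawley) cortical P2 homogenate, 0.5 mg protein, in 50 mM Na/K phosphate pH 7.4, 200 mM NaCl, incubated 90 min at 25° C with 2 nM [35S]TBPS plus GABA and (+)bicuculline, compounds added in DMSO. Filter-bound radioactivity counted; nonspecific binding defined with […].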

[5] = tested on: rats; test: Geller-Seifter conflict test; format: in vivo, Sprague-Dawley rats
From the text: This animal model of human anxiety utilizes a conditioned state of conflict in rats to ascertain the anxiolytic properties of drugs. Rats are conditioned to bar press for positive reinforcement under two schedules of behavior (Geller and Seifter, Psychopharmacologia 1:482-492 (1960)). The first includes bar pressing under a […] schedule without punishment. The second component is a fixed ratio schedule with each bar press resulting in a positive reinforcement and a punishment. The punished component produces a state of conflict within the animal. […] An anxiolytic response would increase the punished responding without affecting the unpunished responding.
Male albino Sprague-Dawley rats (Charles River Labs, Wilmington, MA) weighing 250-300 g were used for conflict experiments and were kept on a restricted diet of Purina Lab Chow food pellets with water available at all times to maintain body weight at 85% of their free-feeding young adult levels. Rats were housed individually under a 12-hour light-dark cycle with lights on from 0700-1900.
The anti-anxiety (punishment-lessening) and response depressant effects of […] and […] were measured in rats by the conflict test of Geller and Seifter (1960). In this 63-min test, hungry rats perform a lever-press response to obtain a sweetened milk reward. The reinforcement schedule consists of punishment and nonpunishment components, alternating approximately every 15 min. Rats were trained in test chambers (Coulbourn instruments) with a lever mounted in one wall, a small dipper that delivered the 0.1-mL milk reward (1 part Eagle condensed : milk 2 parts water), and a metal grid floor through which the foot-shock punishment was administered. A DEC PDP 11/73 minicomputer running SKED (State Systems) was used for programming and recording.
Rates initially learned to respond on a continuous reinforcement schedule and progressed rapidly to 30-sec, 1-min, and 2-min variable interval (VI) schedules. On the continuous reinforcement schedule, rats received milk reward following every lever press; on the VI schedules, milk rewards were available at infrequent and variable intervals, eventually at an average of once every 2 min. Four 3-min "conflict" periods were then introduced on the unpunished VI baseline; the first started after 3 min of VI performance and the others were alternated between 12-min periods of VI responding. During conflict periods, which were signalled by the presentation of a light and a tone, the continuous reinforcement schedule was again in force and each lever press delivered both a milk reward and a brief ([…]) foot-shock punishment. Shock intensity was 0.2 mA initially, and.was increased daily in increments of 0.02 mA in order to gradually suppress lever pressing to 5 responses or less per conflict period. This training took 4-6 weeks, after which stable low rates of response were observed during conflict periods and stable high rates in the nonpunishment periods. Drug-induced increases in the rate of punished responses were taken as an index of antianxiety activity, while decreases in the rate of unpunished responses were taken as an index of response depression or sedation.

[6] = 50% hpbcd, 10 minutes prior to metrazol (85 mg/kg)

CCO[C@H]1C[C@@]2(C)[C@@H](CC[C@@H]3[C@@H]2CC[C@]2(C)[C@@H](C(C)=O)CC[C@@H]32)C[C@@H]1O [2β-Ethoxy-3α-hydroxy-5α-pregnan-20-one]
Loss-of-Righting Reflex ([1]; 20% cremophor, 5 mg/kg): 100

CC(=O)[C@H]1CC[C@H]2[C@@H]3CC[C@H]4C[C@H](O)[C@@H](F)C[C@]4(C)[C@H]3CC[C@]12C [2β-Fluoro-3α-hydroxy-5α-pregnan-20-one]
Loss-of-Righting Reflex ([1]; micronizing solution, 5 mg/kg): 100

CC(=O)OCC(=O)[C@H]1CC[C@H]2[C@@H]3CC[C@@H]4C[C@@](O)(C(F)(F)F)CC[C@]4(C)[C@H]3CC[C@]12C [3α,21-Dihydroxy-3β-trifluoromethyl-5β-pregnan-20-one, 21-acetate]
% Control ([2]; 50% hpbcd, 5 mg/kg): 143.3%
% Protected [3, 6]: 62.5%
IC50 ([4]; no unit printed): 370 nM
IMAX [4]: 88
Geller/Seifter (% of control) ([5]; sc, 50% hpbcd, 8 mg/kg): 882.8 % of control

C[C@]12CC[C@](O)(C(F)(F)F)C[C@H]1CC[C@@H]1[C@@H]2CC[C@]2(C)[C@@H](C(=O)COC(=O)CCC(=O)[O-])CC[C@@H]12.[Na+] [3α,21-Dihydroxy-3β-trifluoromethyl-5β-pregnan-20-one, 21-hemisuccinate, sodium salt]
% Control ([2]; water, 20 mg/kg): 172.8%
% Protected ([3]; water): 62.5%
IC50 ([4]; unit inferred, sodium salt): 712 nM
IMAX [4]: 99
Geller/Seifter (% of control) ([5]; po, water, 8 mg/kg): 840.0 % of control

C#C[C@@]1(O)CC[C@@]2(C)[C@H](CC[C@@H]3[C@@H]2CC[C@]2(C)[C@@H](C(=O)COC(=O)CCC(=O)O)CC[C@@H]32)C1 [3α,21-dihydroxy-3β-ethynyl-5β-pregnan-20-one 21 hemisuccinat] [3α,21-dihydroxy-3β-ethynyl-5β-pregnan-20-one 21 hemisuccinate]
% Control ([2]; 50% hpbcd, 10 mg/kg): 164.2%
% Protected ([3]; water): 50%
IMAX [4]: 82
Geller/Seifter (% of control) ([5]; po, water, 16 mg/kg): 1350.0 % of control

C[C@]12CC[C@H]3[C@@H](CC[C@@H]4C[C@@](O)(C(F)(F)F)CC[C@@H]43)[C@@H]1CC[C@@H]2C(=O)COC(=O)CCC(=O)[O-].[Na+] [3α,21-dihydroxy-3β-trifluoromethyl-19-nor-5β-pregnan-20-one, 21-hemisuccinate, sodium salt]
% Control ([2]; water, 20 mg/kg): 161.1%
% Protected ([3]; water): 50%
IC50 ([4]; no unit printed): 530 nM
IMAX [4]: 101
Geller/Seifter (% of control) ([5]; po, water, 8 mg/kg): 2493.4 % of control

CC(=O)C1=CC[C@H]2[C@@H]3CC[C@H]4C[C@](C)(O)CC[C@]4(C)[C@H]3CC[C@]12C [3α-Hydroxy-3β-methyl-5α-pregn-16-en-20-one]
Loss-of-Righting Reflex ([1]; micronizing solution, 50 mg/kg): 100

COCCC(=O)[C@H]1CC[C@H]2[C@@H]3CC[C@H]4C[C@](C)(O)CC[C@]4(C)[C@H]3CC[C@]12C [3α-Hydroxy-3β-methyl-21-methoxymethyl-5α-pregnan-20-one]
Loss-of-Righting Reflex ([1]; micronizing solution, 20 mg/kg): 100

CC(=O)[C@H]1CC[C@H]2[C@@H]3CC[C@@H]4C[C@@](O)(C(F)(F)F)CC[C@@H]4[C@H]3CC[C@]12C [3α-Hydroxy-3β-trifluoromethyl-5β-19-norpregnan-20-one]
% Control ([2]; 50% hpbcd, 10 mg/kg): 173.8%
% Protected [3, 6]: 100%
IC50 ([4]; no unit printed): 76 nM
IMAX [4]: 100
Geller/Seifter (% of control) ([5]; sc, 50% hpbcd, 4 mg/kg): 1073.1 % of control

CC(=O)[C@H]1CC[C@H]2[C@@H]3CC[C@@H]4C[C@@](O)(C(F)(F)F)CC[C@]4(C)[C@H]3CC[C@]12C [3α-Hydroxy-3β-trifluoromethyl-5β-pregnan-20-one]
% Control ([2]; 50% hpbcd, 20 mg/kg): 197.6%
% Protected [3, 6]: 62.5%
IC50 ([4]; no unit printed): 211 nM
IMAX [4]: 98
Geller/Seifter (% of control) ([5]; sc, 50% hpbcd, 4 mg/kg): 663.2 % of control

C#C[C@@]1(O)CC[C@@]2(C)[C@@H](CC[C@@H]3[C@@H]2CC[C@]2(C)[C@@H](C(C)=O)CC[C@@H]32)C1 [3α-hydroxy-3β-ethynyl-5α-pregnan-20-one, 3β-Ethynyl-3α-hydroxy-5α-pregnan-20-one]
% Control ([2]; 50% hpbcd, 10 mg/kg): 213%
% Protected [3, 6]: 87.5%
IC50 ([4]; no unit printed): 53 nM
IMAX [4]: 91
Geller/Seifter (% of control) ([5]; sc, 50% hpbcd, 8 mg/kg): 830.2 % of control

CC(=O)[C@H]1CC[C@H]2[C@@H]3CC[C@H]4C[C@](C)(O)CC[C@]4(C)[C@H]3CC[C@]12C [3α-hydroxy-3β-methyl-5α-pregnan-20-one]
% Control ([2]; 50% hpbcd, 5 mg/kg): 165.6%
% Protected [3, 6]: 100%
IC50 ([4]; no unit printed): 62 nM
IMAX [4]: 97
Geller/Seifter (% of control) ([5]; sc, 50% hpbcd, 4 mg/kg): 1384.6 % of control

CC(=O)[C@H]1CC[C@H]2[C@@H]3CC[C@H]4C[C@@](O)(CF)CC[C@]4(C)[C@H]3CC[C@]12C [3β-Fluoromethyl-3α-hydroxy-5α-pregnan-20-one]
% Control ([2]; 50% hpbcd, 20 mg/kg): 150.7%
% Protected [3, 6]: 14.3%
IC50 ([4]; no unit printed): 200 nM
IMAX [4]: 77
Geller/Seifter (% of control) ([5]; sc, 50% hpbcd, 8 mg/kg): 1005 % of control

C=C[C@@]1(O)CC[C@@]2(C)[C@@H](CC[C@@H]3[C@@H]2CC[C@]2(C)[C@@H](C(C)=O)CC[C@@H]32)C1 [3β-ethenyl-3α-hydroxy-5α-pregnan-20-one, 3β-Ethenyl-3α-hydroxy-5α-pregnan-20-one]
% Control ([2]; 50% hpbcd, 5 mg/kg): 154.3%
% Protected [3, 6]: 100%
IC50 ([4]; no unit printed): 113 nM
IMAX [4]: 88
Geller/Seifter (% of control) ([5]; po, 50% hpbcd, 12 mg/kg): 1092.3 % of control
